Where a name gives a salt, the structure may show the parent alone.
Assay: Volume of water needed to dissolve
Assay type: physicochemical
Conditions: 1 mmole (782 mg)
Text: Evidently, dinitramide ion quenches the fluorescence of protonated quinine.

In the case of `C=C[C@H]1C[N@@]2CC[C@H]1C[C@H]2[C@H](O)c1ccnc2ccc(OC)cc12` [quinine sulfate], the “water required to dissolve” value is reported as 900 mL.
